Measured values published in ChEMBL document CHEMBL3102707, “Synthesis and structure-activity relationship of 2-adamantylmethyl tetrazoles as potent and selective inhibitors of human 11β-hydroxysteroid dehydrogenase type 1 (11β-HSD1)” (Bioorg Med Chem Lett, 2014).

Key:
[1] = Aqueous solubility of the compound; type: physicochemical; settings: buffer
[2] = Drug level in mouse adipose tissue at 10 mg/kg, po after 3 hrs; type: ADME, organism-based; set-up: dose 10 mg/kg, route oral; settings: read-out: Drug uptake
[3] = Plasma concentration in mouse at 10 mg/kg, po after 3 hrs; type: ADME, organism-based; set-up: dose 10 mg/kg, route oral
[4] = Drug level in mouse liver at 10 mg/kg, po after 3 hrs; type: ADME, organism-based; set-up: dose 10 mg/kg, route oral; settings: read-out: Drug uptake

| SMILES | solubility [1] | concentration at 3 h [2] [nM] | concentration at 3 h [3] [nM] | concentration at 3 h [4] [nM] |
| --- | --- | --- | --- | --- |
| c1ccc(-c2ccc(C3(Cc4nnn[nH]4)C4CC5CC(C4)CC3C5)cc2)cc1 (configuration not stated) | soluble |  |  |  |
| N#Cc1ccc(-c2ccc(C3(Cc4nnn[nH]4)C4CC5CC3CC(C4)C5O)cc2)cc1 (racemic) |  | < 75 | 820 | 23700 |
| OC1C2CC3CC1CC(C2)C3(Cc1nnn[nH]1)c1ccc(-c2ccc(F)cc2)cc1 (single isomer, unassigned; enantiomer 1) |  | 160 | 1560 | 13900 |
